Columns and labels:
Format in all cases: cell-based
[1] = system: Alcaligenes odorans 33585; experiment: Pattern of inhibition using silicone-emulsion CO2 sensors (Table 3); conditions: 5.4 mcg; 4 h, 37° C.; 5×10^7 CFU/ml
Excerpt: (§1) Microbial identification using the described CO2 sensors can also be based on the principle of growth inhibition. This system differs from the classical biochemical identification systems, as identification is based on selective growth inhibition by inhibitory agents, such as dyes, antibiotics, and other substances. Once again, the production of CO2 is the measure of growth. The growth pattern produced in the presence of these inhibitory agents identifies the species of the test microorganism. The amount of growth is compared with a growth control well that contains no inhibitor. A profile is derived using a two-stage quadratic discriminate analysis based on the results derived from the battery of inhibitory agents.
(§2) Microtiter plates (96 flat bottom wells) containing 0.05% xylenol blue silicone-emulsion sensors were filled with 100 microliters of microbial growth medium containing no inhibitors (growth control wells) and eighteen different dyes, antibiotics, and other inhibitory substances. Final concentrations of the inhibitors were achieved after addition of 100 microliters of inoculum (final inoculum of 5×10^7 CFU/ml) of the representative microorganisms.
(§3) After inoculating the microtiter tray, it was sealed with a pressure sensitive plastic plate sealer and initial readings were taken with a reflectance reader. The plate was then placed into a 37° C. incubator. After four hours incubation, the plate was removed and final reflectance readings were taken.

[2] = system: Escherichia coli 33582; experiment: as above; conditions: 5.4 mcg; 4 h, 37° C.; 5×10^7 CFU/ml
Excerpt: as §1, §2, §3

[3] = system: Proteus mirabilis 33583; experiment: as above; conditions: 5.4 mcg; 4 h, 37° C.; 5×10^7 CFU/ml
Excerpt: as §1, §2, §3

[4] = system: Pseudomonas aeruginosa 33584; experiment: as above; conditions: 5.4 mcg; 4 h, 37° C.; 5×10^7 CFU/ml
Excerpt: as §1, §2, §3

[5] = system: Escherichia coli 29194; experiment: Antimicrobial susceptibility pattern using silicone-emulsion CO2 sensors (Table 4); conditions: Escherichia coli, 29194, 4 h, read-out: Percent growth as compared to a growth control without antibiotics
Excerpt: (§4) Microtiter plates (96 flat bottom wells) containing 0.05% Xylenol blue silicone-emulsion sensors on the bottom were filled with 100 microliters of microbial growth medium containing no antibiotics (growth control wells) and nine different classes of antibiotics. Final concentrations of the antibiotics were achieved after addition of 100 microliters of inoculum (final inoculum of 5×10^7 CFU/ml) of the representative microorganisms. The concentrations of antibiotics used represent those used in determining if the test organism is sensitive, intermediate, or resistant to a particular antibiotic.
as §3
(§5) The results in Table 4 show a pattern of growth, no growth, or intermediate growth of the four test organisms with the nine classes of antibiotics. This is indicative of the type of susceptibility of the organisms to the antibiotics. The organisms tested vary in their susceptibility pattern because of differences in their physiological makeup.

[6] = system: Pseudomonas aeruginosa 27853; experiment: as above; conditions: Pseudomonas aeruginosa, 27853, 4 h, read-out: Percent growth as compared to a growth control without antibiotics
Excerpt: as §4, §3, §5

[7] = system: Staphylococcus aureus 25923; experiment: as above; conditions: Staphylococcus aureus, 25923, 4 h, read-out: Percent growth as compared to a growth control without antibiotics
Excerpt: as §4, §3, §5

[8] = system: Streptococcus faecalis 29212; experiment: as above; conditions: Enterococcus faecalis, 29212, 4 h, read-out: Percent growth as compared to a growth control without antibiotics
Excerpt: as §4, §3, §5

[9] = system: Escherichia coli (ATCC number 11775); experiment: Carbon source utilization in carbon dioxide sensor plates (Example 6); conditions: 0.5% bromosuccinic acid
Experimental: (§6) 50 ml Kodak Universal Indicator was evaporated to dryness and resuspended in 2 ml HPCL grade isopropanol. 240 mg of phenolphthalein, sodium salt, dissolved in 2 ml of water was added to 1 ml of the concentrated Universal Indicator solution. 150 microliters of CAPS buffer (3-{cyclohexlamino}-1-propanesulfonic acid), pH 10.4, 500 mM was mixed with the phenolphthalein/Universal Indicator solution. This solution was added to 10 grams of GE RTV 615 A silicone that had been degassed for approximately 15 minutes. The silicone and indicator emulsion was mixed by hand stirring. 0.1 grams of white silicone pigment and 2 grams of GE RTV 615 B was added to the mixture. The mixture was hand mixed and degassed for approximately 5 minutes. The emulsion was transferred into a pressurized syringe dispenser fitted to an "air brush" sprayer and sprayed into a polystyrene 24 well plate that had previously been sprayed with 2 coats of GE silicone primer SS 4120. Enough of the indicator/silicone emulsion was sprayed into the wells to coat the bottom surface. The plate was then placed in a humidified oven and cured at 50° C. overnight. This spraying process was repeated on 3 consecutive days for a total of 3 coatings to the wells.
(§7) Two organisms, Escherichia coli (ATCC number 11775) and Pseudomonas aeruginosa (ATCC number 1014), both type strains, were grown overnight (17 hours) in a complex medium as described in Example 3 C, at 37° C., with shaking. The organisms were harvested, spun down at 11950-X-g, at 4° C. for 20 minutes. The supernatant was poured off and the organisms were resuspended in 0.9% sterile saline to an OD600 =5.0.
(§8) Each well of the prepared microtiter plate contained 1 ml of one of the following three media:
(§9) a) a minimal medium buffered with 50 mM Hepes buffer, pH 7.2, containing no carbon source (the negative control);
(§10) b) the same medium as the negative control except that it contained 0.5% bromosuccinic acid; and
(§11) c) an undefined medium Trypticase soy yeast extract medium, buffered with 50 mM Hepes, pH 7.2 (the positive control).
(§12) Twenty microliters of each prepared organism was added to duplicate wells of each type of media.
(§13) The wells were sealed with cork stoppers and the plate was incubated at 37° C. Color changes of the sensor on the bottom of the plate were monitored by eye over a 6 hour period. After approximately 4 hours, two distinct patterns could be seen. […] The positive control wells for E. coli changed from purple to green to yellow to orange, indicating a pH change of the sensor from 10 to approximately 6. The positive control well for P. aeruginosa changed from purple to green to yellow (a pH change of the sensor from 10 to approximately 7). The wells with the bromosuccinic acid medium gave the most distinction between the two organisms. […]

[10] = system: Pseudomonas aeruginosa (ATCC number 1014); experiment: as above; conditions: 0.5% bromosuccinic acid
Experimental: as §6, §7, §8, §9, §10, §11, §12, §13

SMILES: NC[C@H]1O[C@H](O[C@H]2[C@H](O)[C@@H](O[C@H]3O[C@H](CO)[C@@H](O)[C@H](N)[C@H]3O)[C@H](N)C[C@@H]2N)[C@H](O)[C@@H](O)[C@@H]1O [Kanamycin]
- Percent growth as compared to a growth control without antibiotics [1]: 95%
- Percent growth as compared to a growth control without antibiotics [2]: 66%
- Percent growth as compared to a growth control without antibiotics [3]: 44%
- Percent growth as compared to a growth control without antibiotics [4]: 105%
- activity at 22 µg/mL [5]: 91%
- activity at 22 µg/mL [6]: 72%
- activity at 22 µg/mL [7]: 13%
- activity at 22 µg/mL [8]: 95%

SMILES: CN[C@H](CC(C)C)C(=O)N[C@H]1C(=O)N[C@@H](CC(N)=O)C(=O)N[C@H]2C(=O)N[C@H]3C(=O)N[C@H](C(=O)N[C@H](C(=O)O)c4cc(O)cc(O)c4-c4cc3ccc4O)[C@H](O)c3ccc(c(Cl)c3)Oc3cc2cc(c3O[C@@H]2O[C@H](CO)[C@@H](O)[C@H](O)[C@H]2O[C@H]2C[C@](C)(N)[C@H](O)[C@H](C)O2)Oc2ccc(cc2Cl)[C@H]1O [Vancomycin]
- activity at 10 µg/mL [5]: 94%
- activity at 10 µg/mL [6]: 106%
- activity at 10 µg/mL [7]: 22%
- activity at 10 µg/mL [8]: 15%

SMILES: O=C(O)CC(Br)C(=O)O (stereo not shown) [bromosuccinic acid]
- Utilization as carbon source to produce CO2 [9]: able to utilize this carbon source only slightly to produce CO2
- pH of the sensor reached (change from 10) ([9]; four hours, 37° C., by eye): 8.5 pH
- Utilization as carbon source to produce CO2 [10]: preferred carbon source
- pH of the sensor reached (change from 10) ([10]; four hours, 37° C., by eye): approximately 6 pH

Source: patent US5856175A, “Device for detecting microorganisms” (priority 1996, dated 1999)
